Results taken from the SangsterLogP compilation.

Experiment: method code SF-GLC, from DOI: 10.1016/s0045-6535(99)00157-5

logP | Structure (SMILES)
5.52 | CC1(C(Cl)Cl)C2C(Cl)C(Cl)C1(C(Cl)Cl)C(Cl)C2Cl (stereo not drawn)
5.74 | ClCC1(CCl)C2C(Cl)C(Cl)C1(CCl)C(Cl)(Cl)C2Cl (stereo not drawn)
5.23 | ClCC1(CCl)[C@H]2CC(Cl)(Cl)[C@]1(CCl)[C@@H](Cl)[C@@H]2Cl
6.64 | ClC[C@@]1(C(Cl)Cl)[C@@H]2CC(Cl)(Cl)[C@@]1(C(Cl)Cl)[C@H](Cl)C2(Cl)Cl
5.57 | ClCC1(CCl)C2[C@@H](Cl)[C@H](Cl)C1(C(Cl)Cl)[C@@H](Cl)[C@@H]2Cl
5.49 | CC1(CCl)C2CC(Cl)(Cl)C1(C(Cl)Cl)CC2Cl (stereo not drawn)
5.9 | C[C@]1(C(Cl)Cl)[C@H]2CC(Cl)(Cl)[C@]1(C(Cl)Cl)CC2(Cl)Cl
5.19 | ClCC1(C(Cl)Cl)C2C(Cl)CC1(C(Cl)Cl)C(Cl)C2Cl (stereo not drawn)
5.44 | ClCC1(CCl)C(=C(Cl)Cl)C2CC1C(Cl)(Cl)C2Cl (stereo not drawn)
5.75 | ClCC1(C(Cl)Cl)C2CC(Cl)C1(C(Cl)Cl)CC2(Cl)Cl (stereo not drawn)
6.26 | ClCC1(CCl)C2C(Cl)C(Cl)(Cl)C1(C(Cl)Cl)CC2(Cl)Cl (stereo not drawn)
5.49 | ClCC12CCC(C(Cl)C1(Cl)Cl)C2(C(Cl)Cl)C(Cl)Cl (stereo not drawn)
5.8 | ClCC1(C(Cl)Cl)C2CC(Cl)(Cl)C1(C(Cl)Cl)C(Cl)C2Cl (stereo not drawn)
5.49 | ClCC1(C(Cl)Cl)C(=C(Cl)Cl)C2CC1C(Cl)(Cl)C2Cl (stereo not drawn)
5.35 | ClC=C1C2C(Cl)C(Cl)C(C2Cl)C1(CCl)CCl (stereo not drawn)
5.2 | ClC=C1C2CC(C1(CCl)CCl)C(Cl)(Cl)C2Cl (stereo not drawn)
5.89 | ClC[C@@]1(C(Cl)Cl)C2[C@@H](Cl)[C@H](Cl)C1(C(Cl)Cl)[C@@H](Cl)[C@@H]2Cl
5.96 | ClCC1(C(Cl)Cl)C2CC(Cl)(Cl)C1(C(Cl)Cl)CC2(Cl)Cl (stereo not drawn)
